Laboratory results: patent US20080085563A1, “Detection of Gadolinium Chelates” (IDEXX LABORATORIES, INC., priority 2006, published 2008)
Where a SMILES comes first, the peptide text is derived from it.

How the values were obtained:
[1] = weak acid of low-pH buffering system; first value; cited from earlier work
[2] = Effect of masking agent on gadolinium response in the arsenazo III assay; settings: optimal amount of HDMP, pH 2.4
Source text: In general, chelating agents, including EDTA, EGTA, TTHA, EDTPO, phenanthroline, and 8-hydroxyquinoline have a greater affinity for rare earth metals, such as gadolinium, than for calcium. HDMP, however, is unusual in its ability to bind calcium preferentially over gadolinium. […] This essentially, although not completely, eliminates the interference by calcium with the method of the invention. […] In one aspect of the invention, the reagent includes HDMP. For example, a reagent of the invention can contain about 10 to about 2000 mM HDMP. In various aspects, the reagent contains about 10 to about 800 mM HDMP, and more particularly about 70 mM HDMP. […] Higher levels of HDMP may be selected to further remove calcium and iron interference based upon analytical sensitivity, matrix effects (e.g., diet, drugs, toxicants, […] icterus), solubility, sample quality (e.g., hemolysis) and storage stability. […] Commercial […]®, Berlex Laboratories, Wayne N.J.) ranging from 50-400 μM was added to 0.07 mL of canine serum. The canine serum was added to the arsenazo III reagent in varying amounts. […] This is obtained by subtracting the absorbance of each solution at 750 nm from its absorbance at 654 nm, reducing interference from wavelength-independent absorbance due to sample turbidity.

[3] = Masking of calcium interference in the gadolinium-arsenazo III assay
Source text: For instance, while calcium interference decreases exponentially with pH, it is not completely eliminated. In addition, the affinity of gadolinium for arsenazo dye decreases with pH, reducing both linearity and sensitivity of gadolinium response. In one aspect, the method of the invention allows for a pH window where the pH is high enough to allow highly efficient measurement of gadolinium chelate while reducing calcium interference by 99% relative to its maximal binding to Arsenazo at pH 6. Nonetheless, even within this optimally selective pH window, interference from both calcium and ferric ions is substantial. To remedy this persistent residual calcium interference, in another aspect of the invention, the compound HDMP, commonly used as an oral iron chelator for treatment of thalassemia (iron overload), is added to the reagent of the invention to effectively mask interference from both calcium and ferric ions without substantially reducing gadolinium assay response. In general, chelating agents, including EDTA, EGTA, TTHA, EDTPO, phenanthroline, and 8-hydroxyquinoline have a greater affinity for rare earth metals, such as gadolinium, than for calcium. […] This is obtained by subtracting the absorbance of each solution at 750 nm from its absorbance at 654 nm, reducing interference from wavelength-independent absorbance due to sample turbidity.

[4] = Masking of ferric ion interference in the gadolinium-arsenazo III assay; settings: 70 mM HDMP in reagent
Procedure: In one aspect of the invention, the reagent includes HDMP. For example, a reagent of the invention can contain about 10 to about 2000 mM HDMP. In various aspects, the reagent contains about 10 to about 800 mM HDMP, and more particularly about 70 mM HDMP. […] Higher levels of HDMP may be selected to further remove calcium and iron interference based upon analytical sensitivity, matrix effects (e.g., diet, drugs, toxicants, […] icterus), solubility, sample quality (e.g., hemolysis) and storage stability. […] The ferric sulfate increased the net absorbance of the solution ([…] nm minus A750 nm). This amount of ferric ion is approximately 10 times the amount that would be contributed by 0.07 mL of a normal canine serum sample.

Structure (SMILES)	Acid pKa [1]	reduction in gadolinium signal [2]	calcium masked ([3]; 70 mM HDMP in reagent) [%]	reduction in calcium interference ([3]; optimal amount of HDMP, pH 2.4)	ferric ion masked [4]
NCC(=O)NCC(=O)O [Diglycine] (H-Gly-Gly-OH)	3.14				
Cc1c(O)c(=O)ccn1C [HDMP, 3-hydroxy-1,2-dimethyl-4(1H)-pyridone]		less than 10%	87	greater than 90%	greater than 95%
O=C1CC(=O)NC(=O)N1 [Barbituric acid]	4.04				
